Earlier results on 13 molecules are cited in patent US11503825B2, “Pyrethroid formulations” (Vive Crop Protection Inc., priority 2011, dated 2022).

The conditions of data set [1]: cited from earlier work; for Stability data: in words.
The conditions of data set [2]: cited from earlier work; for Photolytic stability: in words; for Photolysis DT50: aqueous solution.
For data set [3] the following is noted: hydrolysis prevents measurement; cited from earlier work.
For data set [4] the following is noted: cited from earlier work.
For data set [5] the following is noted: cited from earlier work. The source holds these as a separate data set.

In brackets after ≈: the same amount, converted by molar mass. Entries after “also recorded” stand apart in the source; their conditions may differ. Read-outs that look alike come from different tables or passages of the source. Bounds are passed on as bounds.

`CC1(C)C(C=C(Cl)Cl)C1C(=O)OC(C#N)c1cccc(Oc2ccccc2)c1` (racemic) [Alpha-cypermethrin, A racemate comprising (S)-α-cyano-3-phenoxybenzyl (1R,3R)-3-(2,2-dichlorovinyl)-2,2-dimethylcyclopropanecarboxylate and (R)-α-cyano-3-phenoxybenzyl (1S,3S)-3-(2,2-dichlorovinyl)-2,2-dimethylcyclopropanecarboxylate]: the “DT50 (hydrolysis)” value in data set [1] (pH 4, 50° C.) is “stable over 10 d”; in data set [1] (pH 7, 20° C.) it was 101 days; in data set [1] (pH 9, 20° C.), 7.3 days.

As to `Cc1c(COC(=O)[C@@H]2[C@H](/C=C(\Cl)C(F)(F)F)C2(C)C)cccc1-c1ccccc1` (racemic) [Bifenthrin, 2-methylbiphenyl-3-ylmethyl (Z)-(1RS,3RS)-3-(2-chloro-3,3,3-trifluoroprop-1-enyl)-2,2-dimethylcyclopropanecarboxylate], the “Soil DT50 (lab.)” value in data set [1] (range) was 53 to 192 days. The “Photolytic stability DT50” value in data set [2] (in natural daylight) is recorded as “DT50 255 days in natural daylight^+”.

As to `CC1(C)[C@H](C(=O)O[C@@H](C#N)c2cccc(Oc3ccccc3)c2)[C@@H]1/C=C(\Cl)C(F)(F)F` (racemic) [Cyhalothrin, (RS)-α-cyano-3-phenoxybenzyl (Z)-(1RS,3RS)-3-(2-chloro-3,3,3-trifluoroprop-1-enyl)-2,2-dimethylcyclopropanecarboxylate], the pKa in data set [3] is given as more than 9. Also, the Stability data entry in data set [1] is on record as “Slowly hydrolyzed by water in sunlight at pH 7-9,; also recorded: more rapidly at pH >9”. Moreover, the “Solubility in acetone, dichloromethane, methanol, diethyl ether, ethyl acetate, hexane, toluene” value in data set [4] is given as “acetate, hexane, toluene: >500 g/L”. In data set [4] (pH 5, 20° C.), the Solubility in water entry is listed as “water: 4.2 ug/L (pH 5, 20° C.)”. Further, the Photolytic stability result in data set [2] is “Stable to light; slow hydrolysis by water in”. Moreover, the “KOW logP” value in data set [5] (20° C.) was “logP = 6.9”.

Turning to `CC1(C)C(C=C(Cl)Cl)C1C(=O)OC(C#N)c1cccc(Oc2ccccc2)c1` (racemic) [Cypermethrin, (RS)-α-cyano-3-phenoxybenzyl (1RS,3RS;1RS,3SR)-3-(2,2-dichlorovinyl)-2,2-dimethylcyclopropanecarboxylate], the “DT50 (hydrolysis)” value in data set [1] (pH 9, 25° C.) is 1.8 days.

With `CC(C)[C@@H](C(=O)O[C@@H](C#N)c1cccc(Oc2ccccc2)c1)c1ccc(Cl)cc1` (racemic) [Fenvalerate, (RS)-α-cyano-3-phenoxybenzyl (RS)-2-(4-chlorophenyl)-3-methylbutyrate], in data set [1], the Stability data result is listed as “rapidly hydrolyzed in alkaline media”. In data set [4] (20° C.), the Solubility in methanol entry is recorded as “methanol 84 (all in g/l, 20° C.)”; the Solubility in n-hexane was 53 g/L (≈ 126 mM); the Solubility in xylene is more than 200 g/L. The Solubility in water entry in data set [4] (25° C.) is “water <10 μg/l (25° C.)”. The Photolytic stability entry in data set [2] was “Decarboxylation occurs in light^+”. Besides, in data set [5] (23° C.), the “KOW logP” value is listed as “logP = 5.01”.

On to `CC1(C)C(C=C(Cl)Cl)C1C(=O)OC(C#N)c1cccc(Oc2ccccc2)c1` (racemic) [Zeta-cypermethrin, A mixture of the stereoisomers (S)-α-cyano-3-phenoxybenzyl (1RS,3RS;1RS,3SR)-3-(2,2-dichlorovinyl)-2,2-dimethylcyclopropanecarboxylate where the ratio of the (S);(1RS,3RS) isomeric pair to the (S);(1RS,3SR) isomeric pair lies in the ratio range 45-55 to 55-45], for which the “Hydrolysis DT50” value was 25 days in data set [1] (pH 7, 25° C.) and 1.5 h (pH 9, 50° C.) in data set [1] (pH 9, 50° C.). In addition, in data set [2], the “Photolysis DT50” value is reported as “Photolysis DT50 (aqueous solution) 20-26 days^+”.

Regarding `CC1(C)[C@H](C(=O)O[C@H](C#N)c2cccc(Oc3ccccc3)c2)[C@@H]1C=C(Br)Br` [Deltamethrin, (S)-α-cyano-3-phenoxybenzyl (1R,3R)-3-(2,2-dibromovinyl)-2,2-dimethylcyclopropanecarboxylate], the Stability data result in data set [1] was “stable at pH 5 and 7”. Also, the DT50 in data set [1] (pH 8) is 31 days; in data set [1] (pH 9), 2.5 days. In addition, the Photolytic stability entry in data set [2] was “Ester bond splitting and bromine loss under”. For the same molecule, the “KOW logP” value in data set [5] (25° C.) is on record as “logP = 4.6”.

For the molecule `CC(C)[C@H](C(=O)O[C@H](C#N)c1cccc(Oc2ccccc2)c1)c1ccc(Cl)cc1` [Esfenvalerate, (S)-α-cyano-3-phenoxybenzyl (S)-2-(4-chlorophenyl)-3-methylbutyrate], in data set [1], the Stability data entry is “Stable to hydrolysis at pH 5, 7 and 9 (25° C.)”. Moreover, in data set [4] (20° C.), the Solubility in hexane was 77 mg/mL (≈ 183 mM); the Solubility in water result was “water 0.002 mg/l (20° C.)”; the “Solubility in xylene, acetone, chloroform, ethanol, methanol, DMF, hexylene glycol” value was more than 450 mg/mL. In data set [2], the Photolytic stability entry is reported as “Stable^+”. Also, the “KOW logP” value in data set [5] (pH 7, 25° C.) is on record as “logP = 6.5”.

Take `CC1(C)[C@H](C(=O)O[C@H](C#N)c2cccc(Oc3ccccc3)c2)[C@@H]1/C=C(\Cl)C(F)(F)F` [Gamma-cyhalothrin, (S)-α-cyano-3-phenoxybenzyl (Z)-(1R,3R)-3-(2-chloro-3,3,3-trifluoroprop-1-enyl)-2,2-dimethylcyclopropanecarboxylate]: in data set [4] (20° C.), the Solubility in water result is on record as “water 2.1 × 10^−3 mg/l (20° C.)”. Moreover, the “Photolysis DT50” value in data set [2] is “Photolysis DT50 (aqueous solution) 10.6 days^+”. In addition, the “KOW logP” value in data set [5] (19° C.) is “logP = 4.96”.

Turning to `CC1(C)C(C=C(Cl)Cl)C1C(=O)OCc1cccc(Oc2ccccc2)c1` (stereo not drawn) [Permethrin, 3-phenoxybenzyl (1RS,3RS;1RS,3SR)-3-(2,2-dichlorovinyl)-2,2-dimethylcyclopropanecarboxylate], the DT50 result in data set [1] (pH 5, 7, 25° C.) is on record as “stable”. Besides, the “DT50 (hydrolysis)” value in data set [1] (pH 9, 25° C.) is 50 days. In data set [4] (25° C.), the Solubility in methanol is given as 258 (all in g/kg, 25° C.) and the “Solubility in xylene, hexane” value is listed as “xylene, hexane >1000, methanol g/kg”. For the same molecule, the Solubility in water entry in data set [4] (pH 7, 20° C.) is “water 6 × 10^−3mg/l (pH 7, 20° C.);”. Besides, the Solubility in water result in data set [4] (trans- isomers, pH not stated, 25° C.) is reported as “stated, 25° C.); trans- isomers 0.13 mg/l”. Besides, in data set [2], the Photolytic stability entry is reported as “Photolysis in water^++”.

With `CC(C)=CC1C(C(=O)OCc2coc(Cc3ccccc3)c2)C1(C)C` (stereo not drawn) [Resmethrin, 5-benzyl-3-furylmethyl (1RS,3RS;1RS,3SR)-2,2-dimethyl-3-(2-methylprop-1-enyl)cyclopropane carboxylate], the Stability data entry in data set [1] is “Unstable in alkaline media”. Also, the Solubility in water entry in data set [4] (25° C.) is listed as “water 37.9 μg/l (25° C.)”. Besides, in data set [4] (m/v, 20° C.), the Solubility in acetone result is “acetone c. 30%, chloroform,”; the “Solubility in chloroform, dichloromethane, ethyl acetate, toluene” value is reported as more than 50%; the “Solubility in ethanol, n-octanol” value was “ethanol, n-octanol c. 6%, n-hexane”; the “Solubility in isopropyl ether” value was approximately 25%. Also, in data set [4] (m/v, 20° C.), the Solubility in methanol entry was “methanol c. 3% (all m/v, 20° C.)”; the Solubility in n-hexane was approximately 10%; the Solubility in xylene is more than 40%. The Photolytic stability entry in data set [2] was “Decomposes rapidly on exposure to air and light^+”. In data set [5] (25° C.), the “KOW logP” value is listed as “logP = 5.43”.

Take “A mixture of the enantiomers (R)-α-cyano-3-phenoxybenzyl (1S,3R)-3-(2,2-dichlorovinyl)-2,2-dimethylcyclopropanecarboxylate and (S)-α-cyano-3-phenoxybenzyl (1R,3S)-3-(2,2-dichlorovinyl)-2,2-dimethylcyclopropanecarboxylate in the ratio 1:1 [Theta-cypermethrin]”: the “DT50 (extrapolated)” value is 50 days in data set [1] (pH 3, 5, 6, 25° C.); 20 days in data set [1] (pH 7, 25° C.); 18 days in data set [1] (pH 8, 25° C.); 10 days in data set [1] (pH 9, 25° C.).

For the molecule Beta-cypermethrin, the Stability data entry in data set [1] is “Hydrolyzed in strongly alkaline media. DT50”. For the same molecule, the “DT50 (extrapolated)” value in data set [1] (pH 3, 5, 6, 25° C.) was 50 days; in data set [1] (pH 7, 25° C.) it was 40 days; in data set [1] (pH 8, 25° C.), 20 days; in data set [1] (pH 9, 25° C.), “(pH 8), 15 d (pH 9) (all at 25° C.)”. Moreover, in data set [5], the “KOW logP” value is on record as “logP = 4.7”.
